Values of other authors as cited in US10925895B2, “Composition and method of using medicament for treatment of cancers and tumors” (priority 2014, dated 2021).
Like-named read-outs stand apart in the source and are kept apart here.

SMILES | effectiveness as tissue dissolving agent (organic tissue; 5.25% for 40 minutes) | effectiveness as tissue dissolving agent (organic tissue; at 1.3-2.5%) | effectiveness against Enterococcus faecalis (Enterococcus faelicalis)
OCl [Sodium hypochlorite, sodium hypochlorite] | highly effective | ineffective | not effective
[Ca+2].[OH-].[OH-] [Calcium hydroxide, calcium hydroxide] | – | – | ineffective
